Laboratory results taken from publication PMC11359809, “Probing the molecular basis for signal transduction through the Zinc-Activated Channel (ZAC)” (Biochemical pharmacology, 2021).
Where a chain is given by its changes, count along the chain named.

How the values were obtained:
ZAC^L9′I = molecular target: T1, ZAC^L9′I (Homo sapiens, UniProt Q401N2, A152T/L270I); assay: TEVC in oocytes, ZAC L9′I mutant; format: cell-based; settings: TC 100 μM; outward currents compared to WT ZAC and ZAC^L9′A
T1 construct: expressed in transfected cells; host or cells: Xenopus oocytes (cRNA injection, pUNIV vector)
T1 sequence (Q401N2 26-412 A152T/L270I): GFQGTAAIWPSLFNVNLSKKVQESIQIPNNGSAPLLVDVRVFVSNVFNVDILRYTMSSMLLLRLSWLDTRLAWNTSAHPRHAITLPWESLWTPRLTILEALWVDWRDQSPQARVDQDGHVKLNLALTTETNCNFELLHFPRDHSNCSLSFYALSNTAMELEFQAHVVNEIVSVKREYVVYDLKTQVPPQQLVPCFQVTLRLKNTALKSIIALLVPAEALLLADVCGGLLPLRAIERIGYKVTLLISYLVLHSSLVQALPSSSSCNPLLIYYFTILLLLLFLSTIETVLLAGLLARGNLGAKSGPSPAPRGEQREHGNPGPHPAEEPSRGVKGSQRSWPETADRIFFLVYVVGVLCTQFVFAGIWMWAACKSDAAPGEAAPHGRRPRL
Description: (§1) The recordings were performed at room temperature.
(§2) Analysis of the data from the TEVC recordings were performed using Clampfit software version 10.5 (Molecular Devices, Crawley, UK) and GraphPad Prism version 7.0c (GraphPad Software, La Jolla, CA). Unless otherwise stated, the inward currents induced by agonists in oocytes were normalized to the maximal response elicited by a specific agonist (agonist Imax) on each oocyte. Concentration-response and concentration-inhibition curves were fitted in GraphPad Prism by nonlinear regression using the equation for sigmoidal dose-response with variable slope. Each data point represents the mean ± S.E.M. value of recordings performed on at least five oocytes in total from at least two different batches. For the data where statistical analysis was performed, a one-way ANOVA was used. The null hypothesis was rejected at P < 0.05, and the differences between the means were analyzed by Tukey’s multiple comparisons test.

[1] = system: ZAC^L9′X mutants (L9′A, L9′V, L9′I, L9′T); assay: TEVC in oocytes, all four L9′X mutants (collective statement); format: cell-based, human; settings: TC 100 μM; 1 mM Zn^2+; range over all four mutants
Description: as §1, §2
Fig. 8. Functional importance of the Leu9′ residue in ZAC. […] B. Resting membrane potentials (left) and leak currents (right) recorded from oocytes expressing WT ZAC, ZAC^L9′A, ZAC^L9′T, ZAC^L9′V and ZAC^L9′I. Data are given as mean ± S.E.M. values (n = 40–60). C. […]

ZAC^L9′V = molecular target: T2, ZAC^L9′V (Homo sapiens, UniProt Q401N2, A152T/L270V); assay: TEVC in oocytes, ZAC L9′V mutant; format: cell-based; settings: TC 100 μM; outward currents compared to WT ZAC and ZAC^L9′A
T2 construct: expressed in transfected cells; host or cells: Xenopus oocytes (cRNA injection, pUNIV vector)
T2 sequence (Q401N2 26-412 A152T/L270V): T1 sequence (Q401N2 26-412 A152T/L270I) with I245V
Description: as §1, §2

ZAC^L9′T = molecular target: T3, ZAC^L9′T (Homo sapiens, UniProt Q401N2, A152T/L270T); assay: TEVC in oocytes, ZAC L9′T mutant; format: cell-based; settings: TC 100 μM; outward currents compared to WT ZAC and ZAC^L9′A
T3 construct: expressed in transfected cells; host or cells: Xenopus oocytes (cRNA injection, pUNIV vector)
T3 sequence (Q401N2 26-412 A152T/L270T): T1 sequence (Q401N2 26-412 A152T/L270I) with I245T
Description: as §1, §2

WT ZAC = molecular target: T4, WT ZAC (Homo sapiens, UniProt Q401N2, A152T); assay: TEVC in Xenopus oocytes expressing WT ZAC; format: cell-based; settings: TC 100 μM
T4 construct: expressed in transfected cells; host or cells: Xenopus oocytes injected with cRNA (pUNIV vector)
T4 sequence (Q401N2 26-412 A152T): T1 sequence (Q401N2 26-412 A152T/L270I) with I245L
Description: as §1, §2

ZAC^L9′A = molecular target: T5, ZAC^L9′A (Homo sapiens, UniProt Q401N2, A152T/L270A); assay: TEVC in oocytes, ZAC L9′A mutant; format: cell-based; settings: TC 100 μM
T5 construct: expressed in transfected cells; host or cells: Xenopus oocytes injected with cRNA (pUNIV vector)
T5 sequence (Q401N2 26-412 A152T/L270A): T1 sequence (Q401N2 26-412 A152T/L270I) with I245A
Description: as §1, §2

For COc1cc2c3cc1Oc1cc(ccc1O)C[C@@H]1c4c(cc(OC)c(O)c4Oc4ccc(cc4)C[C@@H]3N(C)CC2)CC[N+]1(C)C [TC, tubocurarine], which “I100 μM TC (antagonist-evoked current, spontaneous activity)” value (ZAC^L9′I) is on record?
The value was “substantially higher amplitudes”.

What about the “I100 μM TC/(IZn2+ max + I100 μM TC) ratio (degree of spontaneous activity)” value [1] of the same compound?
The value was 34–40%.

And the “I100 μM TC (antagonist-evoked current, spontaneous activity)” value (ZAC^L9′V)?
Its value is “substantially higher amplitudes”.

And the “I100 μM TC (antagonist-evoked current, spontaneous activity)” value (ZAC^L9′T)?
The value was “substantially higher amplitudes”.

And the “I100 μM TC (antagonist-evoked current, spontaneous activity)” value (WT ZAC)?
The value was “small but significant outward currents”.

What about the “I100 μM TC (antagonist-evoked current, spontaneous activity)” value (ZAC^L9′A) of the same compound?
The value was “small but significant outward currents”.
